In PubChem BioAssay AID250 (DTP/NCI, 2004):
Where “and” joins values, the source holds several entries; their conditions need not be identical. Equal values may be shown once. Toxic doses and inconclusive results are not listed.

Test system: BDF1 mice, L1210 leukemia sc, survival T/C
Experiment: NCI In Vivo Anticancer Drug Screen. Data for tumor model L1210 Leukemia (subcutaneous) in B6D2F1 (BDF1) mice
Settings: endpoint: median survival time, higher = longer survival
Description: The antitumor activity of compounds was measured in mice bearing transplantable tumors. Survival or tumor size were measured and the results are expressed as the measurement made in the treated group (T) divided by the measurement made in the vehicle treated control group (C). The tumor model used in this assay is L1210 Leukemia (subcutaneous) in B6D2F1 (BDF1) mice

[1] = dose: 8.4 mg/kg/injection, schedule: Q01DX Z (sc), vehicle: water
[2] = dose: 14.0 mg/kg/injection, schedule: Q01DX Z (sc), vehicle: water
[3] = dose: 23.0 mg/kg/injection, schedule: Q01DX Z (sc), vehicle: water
[4] = dose: 39.0 mg/kg/injection, schedule: Q01DX Z (sc), vehicle: water
[5] = dose: 65.0 mg/kg/injection, schedule: Q01DX Z (sc), vehicle: water
[6] = dose: 108.0 mg/kg/injection, schedule: Q01DX Z (sc), vehicle: water

C[C@]12C=CC(=O)C=C1CC[C@@H]1[C@@H]2C(=O)C[C@@]2(C)[C@H]1CC[C@]2(O)C(=O)CO
T/C (dose: 25.0 mg/kg/injection, schedule: Q01DX009 (sc), vehicle: water): 100 % of control | T/C (dose: 50.0 mg/kg/injection, schedule: Q01DX009 (sc), vehicle: water): 100 % of control | T/C (dose: 100.0 mg/kg/injection, schedule: Q01DX009 (sc), vehicle: water): 100 % of control | T/C (dose: 108.0 mg/kg/injection, schedule: Q01DX Z (sc), vehicle: methylcellulose (MC)): 109 % of control | T/C (dose: 140.0 mg/kg/injection, schedule: Q01DX Z (oral), vehicle: water): 111 % of control | T/C (dose: 140.0 mg/kg/injection, schedule: Q02DX Z (sc), vehicle: water): 122 % of control | T/C (dose: 180.0 mg/kg/injection, schedule: Q01DX009 (sc), vehicle: water): 116 % of control | T/C (dose: 180.0 mg/kg/injection, schedule: Q01DX Z (sc), vehicle: methylcellulose (MC)): 100 % of control | T/C (dose: 180.0 mg/kg/injection, schedule: Q02DX009 (sc), vehicle: steriod suspending solution): 107 % of control | T/C (dose: 180.0 mg/kg/injection, schedule: Q02DX Z (sc), vehicle: steriod suspending solution): 111 % of control | T/C (dose: 200.0 mg/kg/injection, schedule: Q01DX009 (sc), vehicle: water): 100 % of control | T/C (dose: 233.0 mg/kg/injection, schedule: Q01DX Z (oral), vehicle: water): 111 % of control | T/C (dose: 300.0 mg/kg/injection, schedule: Q01DX Z (sc), vehicle: methylcellulose (MC)): 109 % of control and 112 % of control | T/C (dose: 300.0 mg/kg/injection, schedule: Q02DX009 (sc), vehicle: steriod suspending solution): 104 % of control | T/C (dose: 300.0 mg/kg/injection, schedule: Q02DX Z (sc), vehicle: steriod suspending solution): 105 % of control | T/C (dose: 389.0 mg/kg/injection, schedule: Q01DX Z (oral), vehicle: water): 116 % of control | T/C (dose: 389.0 mg/kg/injection, schedule: Q02DX Z (sc), vehicle: water): 155 % of control | T/C (dose: 400.0 mg/kg/injection, schedule: Q01DX009 (sc), vehicle: water): 88 % of control and 100 % of control | T/C (dose: 500.0 mg/kg/injection, schedule: Q01DX Z (sc), vehicle: methylcellulose (MC)): 104 % of control and 112 % of control | T/C (dose: 500.0 mg/kg/injection, schedule: Q02DX009 (sc), vehicle: steriod suspending solution): 101 % of control | T/C (dose: 500.0 mg/kg/injection, schedule: Q02DX Z (sc), vehicle: steriod suspending solution): 100 % of control | T/C (dose: 648.0 mg/kg/injection, schedule: Q01DX Z (oral), vehicle: water): 122 % of control | T/C (dose: 800.0 mg/kg/injection, schedule: Q01DX009 (sc), vehicle: water): 94 % of control and 100 % of control | T/C (dose: 833.0 mg/kg/injection, schedule: Q01DX Z (sc), vehicle: methylcellulose (MC)): 100 % of control and 112 % of control | T/C (dose: 833.0 mg/kg/injection, schedule: Q02DX009 (sc), vehicle: steriod suspending solution): 103 % of control | T/C (dose: 833.0 mg/kg/injection, schedule: Q02DX Z (sc), vehicle: steriod suspending solution): 105 % of control | T/C (dose: 1080.0 mg/kg/injection, schedule: Q01DX Z (oral), vehicle: water): 111 % of control | T/C (dose: 1080.0 mg/kg/injection, schedule: Q02DX Z (sc), vehicle: water): 155 % of control | T/C (dose: 1388.0 mg/kg/injection, schedule: Q02DX009 (sc), vehicle: steriod suspending solution): 101 % of control | T/C (dose: 1388.0 mg/kg/injection, schedule: Q02DX Z (sc), vehicle: steriod suspending solution): 100 % of control

[I][Hg][CH2]C1COC([CH2][Hg][I])CO1 (stereo not drawn)
T/C (dose: 14.0 mg/kg/injection, schedule: Q01DX Z (sc), vehicle: other): 100 % of control | T/C (dose: 23.0 mg/kg/injection, schedule: Q01DX Z (sc), vehicle: other): 100 % of control | T/C (dose: 39.0 mg/kg/injection, schedule: Q01DX Z (sc), vehicle: other): 105 % of control | T/C (dose: 65.0 mg/kg/injection, schedule: Q01DX Z (sc), vehicle: other): 100 % of control | T/C (dose: 108.0 mg/kg/injection, schedule: Q01DX Z (sc), vehicle: other): 111 % of control

[N-]=[N+]=CC(=O)NCC(=O)NN
T/C (dose: 65.0 mg/kg/injection, schedule: Q01DX Z (sc), vehicle: saline): 90 % of control | T/C (dose: 108.0 mg/kg/injection, schedule: Q01DX Z (sc), vehicle: saline): 100 % of control | T/C (dose: 180.0 mg/kg/injection, schedule: Q01DX Z (sc), vehicle: saline): 100 % of control | T/C (dose: 300.0 mg/kg/injection, schedule: Q01DX Z (sc), vehicle: saline): 100 % of control | T/C (dose: 500.0 mg/kg/injection, schedule: Q01DX Z (sc), vehicle: saline): 100 % of control | T/C (dose: 833.0 mg/kg/injection, schedule: Q01DX Z (sc), vehicle: saline): 107 % of control

O=C(Nc1ccc(C2=NCCN2)cc1)c1cccc(C(=O)Nc2ccc(C3=NCCN3)cc2)c1
T/C [1]: 110 % of control | T/C [2]: 230 % of control | T/C [3]: 235 % of control | T/C [4]: 270 % of control | T/C [5]: 265 % of control | T/C [6]: 270 % of control

N=C(N)SCc1c2ccccc2c(CSC(=N)N)c2ccccc12
T/C (dose: 25.0 mg/kg/injection, schedule: Q01DX009 (ip), vehicle: steriod suspending solution): 110 % of control | T/C (dose: 50.0 mg/kg/injection, schedule: Q01DX009 (ip), vehicle: steriod suspending solution): 110 % of control | T/C (dose: 50.0 mg/kg/injection, schedule: Q01DX009 (sc), vehicle: steriod suspending solution): 120 % of control | T/C (dose: 50.0 mg/kg/injection, schedule: Q04DX003 (ip), vehicle: steriod suspending solution): 100 % of control | T/C (dose: 62.5 mg/kg/injection, schedule: Q01DX001 (ip), vehicle: steriod suspending solution): 100 % of control | T/C (dose: 100.0 mg/kg/injection, schedule: Q04DX003 (ip), vehicle: steriod suspending solution): 110 % of control | T/C (dose: 100.0 mg/kg/injection, schedule: Q04DX003 (sc), vehicle: steriod suspending solution): 100 % of control | T/C (dose: 125.0 mg/kg/injection, schedule: Q01DX001 (ip), vehicle: steriod suspending solution): 110 % of control | T/C (dose: 125.0 mg/kg/injection, schedule: Q01DX001 (sc), vehicle: steriod suspending solution): 110 % of control | T/C (dose: 200.0 mg/kg/injection, schedule: Q01DX009 (sc), vehicle: steriod suspending solution): 120 % of control | T/C (dose: 200.0 mg/kg/injection, schedule: Q04DX003 (sc), vehicle: steriod suspending solution): 105 % of control | T/C (dose: 250.0 mg/kg/injection, schedule: Q01DX001 (ip), vehicle: steriod suspending solution): 110 % of control | T/C (dose: 400.0 mg/kg/injection, schedule: Q01DX009 (sc), vehicle: steriod suspending solution): 110 % of control | T/C (dose: 400.0 mg/kg/injection, schedule: Q04DX003 (sc), vehicle: steriod suspending solution): 110 % of control | T/C (dose: 500.0 mg/kg/injection, schedule: Q01DX001 (sc), vehicle: steriod suspending solution): 105 % of control | T/C (dose: 800.0 mg/kg/injection, schedule: Q01DX009 (sc), vehicle: steriod suspending solution): 110 % of control | T/C (dose: 800.0 mg/kg/injection, schedule: Q04DX003 (sc), vehicle: steriod suspending solution): 100 % of control | T/C (dose: 1000.0 mg/kg/injection, schedule: Q01DX001 (sc), vehicle: steriod suspending solution): 110 % of control | T/C (dose: 2000.0 mg/kg/injection, schedule: Q01DX001 (sc), vehicle: steriod suspending solution): 100 % of control

COc1cc([C@@H]2c3cc4c(cc3[C@H](OC(=O)CCCC(=O)O)[C@H]3COC(=O)[C@H]23)OCO4)cc(OC)c1OC
T/C (dose: 5.0 mg/kg/injection, schedule: Q01DX Z (sc), vehicle: water): 100 % of control | T/C [1]: 109 % of control | T/C [2]: 113 % of control | T/C [3]: 113 % of control | T/C [4]: 118 % of control | T/C [5]: 118 % of control | T/C [6]: 118 % of control
